Measured values reported in patent US9169213B2, “Method of weight management” (Arena Pharmaceuticals, Inc., priority 2012, dated 2015).

Legend:
Type in all cases: in vivo, human
[1] = Pooled BLOOM and BLOSSOM Phase 3 studies: Week 52 outcomes by Week 12/Week 24 responder status, patients without T2DM
Procedure: APD356-009 (“BLOOM”) was a 104-week, placebo controlled study that assessed the safety and efficacy of lorcaserin 10 mg BID in overweight and obese patients, with concurrent behavior modification. The primary efficacy objective during Year 1 was to evaluate weight loss; the primary objective during Year 2 was to assess the ability of lorcaserin to maintain body weight loss that was achieved during Year 1. At study start, each patient received randomized, double blind treatment assignments for Year 1 and for Year 2 (all patients were given a new randomization number for Year 2 to assure that patients and study personnel remained blinded to treatment assignments). All patients assigned to placebo during Year 1 (50% of randomized population) remained on placebo in Year 2. Patients assigned to lorcaserin during Year 1 were randomly assigned to stay on lorcaserin during Year 2 (⅔ of Year 1 lorcaserin patients) or to switch to placebo (⅓ of Year 1 lorcaserin patients).
APD356-011 (“BLOSSOM”) was a 52-week, placebo controlled study that evaluated the effect of two lorcaserin doses (10 mg BID and 10 mg QD) on categorical and total weight loss with concurrent behavior modification. Patients were randomized in a ratio of 2:1:2 to lorcaserin 10 mg BID, 10 mg QD, or placebo.
(§1) An analysis of early weight loss was performed, at each visit after baseline through Week 24, as a predictor of ultimate weight loss success, as defined by achieving at least about 5% weight loss at 52 weeks, or at least about 10% weight loss at 52 weeks.

[2] = BLOOM-DM (APD356-010) Phase 3 study: Week 52 outcomes by Week 12/Week 24 responder status, patients with type 2 diabetes mellitus
Procedure: APD356-010 (BLOOM-DM) was a 52-week, placebo controlled study that evaluated the effect of two lorcaserin doses (10 mg BID and 10 mg QD) on categorical and total weight loss with concurrent behavior modification in 604 patients with type 2 diabetes mellitus managed with oral hypoglycemic agents. Randomization to the 10 mg once daily group was halted by protocol amendment in order to accelerate enrollment, resulting in final group sizes of 253 (placebo), 95 (lorcaserin QD) and 256 (lorcaserin BID).
as §1
Table 3 and Table 4 provide the sensitivity, specificity, positive predicted value (PPV) and negative predictive value (NPV) at Weeks 12 and 24 for at least about 5% and at least about 10% weight loss at Week 52 in different studies. The rounded percent weight loss at Week 12 for at least 5% and at least about 10% weight loss at Week 52 are about 5% and about 6%, respectively. Using the about 6% weight loss at Week 12 as a criterion enhances the PPV for both about 5% and about 10% categorical weight loss at Week 52, but at the expense of excluding about 10% and about 4% more of the about 5% categorical responders at Week 52 in patients without and with diabetes, respectively, based upon NPV. The rounded optimal thresholds at Week 24 for at least about 5% and at least about 10% weight loss at Week 52 are about 6% and about 9%, respectively. Using the 9% weight loss criterion at Week 24 enhances the PPV for both about 5% and about 10% categorical weight loss at Week 52, but at the expense of excluding about 19% and about 9% more of the about 5% categorical responders at Week 52 in patients without and with diabetes, respectively, based upon NPV. As described below, if at least about a 5% weight loss criterion is applied, patients achieving this milestone will achieve an average of about 10.8% weight loss in patients without diabetes and about 9.1% weight loss in patients with diabetes at Week 52.
(§2) Tables 6 and 7, below, present weight loss, vital sign, and glycemic changes at Week 52 in pooled patients without diabetes, patients with T2DM, and pooled patients with impaired fasting glucose (IFG; ≧100 mg/dL) who were Week 12 responders.

[3] = Pooled patients with impaired fasting glucose (IFG) who were Week 12 responders: Week 52 outcomes
Procedure: as §2

[4] = Week 12 Responder (≧5% weight loss), MITT with LOCF, 10 mg BID
[5] = Week 12 responders without diabetes
[6] = Week 12 responders, patients without T2DM, 10 mg BID
[7] = all patients without T2DM, MITT-LOCF
[8] = percent change from baseline at Week 52, Week 12 responders, patients without T2DM, 10 mg BID
[9] = Week 12 responders, patients with T2DM, 10 mg BID
[10] = all patients with T2DM, MITT-LOCF
[11] = percent change from baseline at Week 52, Week 12 responders, patients with T2DM, 10 mg BID
[12] = Week 12 responders with impaired fasting glucose (IFG) at baseline
[13] = Week 12 responders, patients with IFG, 10 mg BID
[14] = percent change from baseline at Week 52, Week 12 responders, patients with IFG, 10 mg BID

## (R)-8-chloro-1-methyl-2,3,4,5-tetrahydro-1H-3-benzazepine hydrochloride salt hemihydrate [drug]
[1]; [4]
  Week 52 Weight 5% Responder: 86%
  Week 52 Weight 10% Responder: 50%
[1]; [5]
  Week 52 reduction in diastolic blood pressure: 2.5 mmHg
  Week 52 reduction in heart rate: 2.5 BPM
  Week 52 reduction in systolic blood pressure: 3.4 mmHg
[1]; [6]
  A1C W52 Change: −0.18%
  DBP W52 Change: −2.5 mmHg
  FPG W52 Change: -2.2 mg/dL
  Heart Rate W52 Change: −2.5 bpm
  SBP W52 Change: −3.4 mmHg
  Weight Loss ≧5% (%) at W52: 85.5%
  Weight Loss ≧10% (%) at W52: 49.8%
[1]; [7]
  proportion achieving ≧5% weight loss at Week 52: 47%
  weight loss at Week 52: 5.8 kg
[1]; of patients with observed Week 12 data, without diabetes, 10 mg BID
  Week 12 Responder (at least 5% weight loss at Week 12), percentage of patients: 49.3%
[1]; [8]
  HDL-C (mg/dL)* W52 Change: 4.6%
  LDL-C (mg/dL)* W52 Change: 1.1%
  Total Cholesterol (mg/dL)* W52 Change: −1.7%
  Triglycerides (mg/dL)* W52 Change: −14.5%
[2]; [4]
  Week 52 Weight 5% Responder: 71%
  Week 52 Weight 10% Responder: 36%
[2]; Week 12 responders with T2DM
  Week 52 reduction in diastolic blood pressure: 1.9 mmHg
  Week 52 reduction in heart rate: 3.2 BPM
  Week 52 reduction in systolic blood pressure: 2.6 mmHg
[2]; [9]
  A1C W52 Change: −1.2%
  DBP W52 Change: −1.9 mmHg
  FPG W52 Change: -29.3 mg/dL
  Heart Rate W52 Change: −3.2 bpm
  SBP W52 Change: −2.6 mmHg
  Weight Loss ≧5% (%) at W52: 70.5%
  Weight Loss ≧10% (%) at W52: 35.9%
  Weight W52 Change: -9.3 kg
[2]; [10]
  proportion achieving ≧5% weight loss at Week 52: 38%
  weight loss at Week 52: 4.7 kg
[2]; diabetic Week 12 responders
  Week 52 reduction in A1C: 1.2%
  Week 52 reduction in FPG: 29.3 mg/dL
[2]; of patients with observed Week 12 data, type 2 diabetes, 10 mg BID
  Week 12 Responder (at least 5% weight loss at Week 12), percentage of patients: 35.9%
[2]; [11]
  HDL-C (mg/dL)* W52 Change: 8.8%
  LDL-C (mg/dL)* W52 Change: 1.4%
  Total Cholesterol (mg/dL)* W52 Change: −0.7%
  Triglycerides (mg/dL)* W52 Change: −17.8%
[3]; [12]
  Week 52 reduction in A1C: 0.4%
  Week 52 reduction in FPG: 7.8 mg/dL
[3]; [13]
  A1C W52 Change: −0.11%
  DBP W52 Change: −1.5 mmHg
  FPG W52 Change: -7.8 mg/dL
  Heart Rate W52 Change: −3.7 bpm
  SBP W52 Change: −1.7 mmHg
  Weight Loss ≧5% (%) at W52: 88.8%
  Weight Loss ≧10% (%) at W52: 52.4%
  Weight W52 Change: -11.2 kg
[3]; [14]
  HDL-C (mg/dL)* W52 Change: 2.1%
  LDL-C (mg/dL)* W52 Change: 2.5%
  Total Cholesterol (mg/dL)* W52 Change: −2.3%
  Triglycerides (mg/dL)* W52 Change: −15.5%
